Structures are written as SMILES.

Series [1] can be described thus: Vitamin B1 level in whole blood, serum pyridoxamine and pyridoxal levels and Wernicke's encephalopathy in two test subjects on pyridoxamine medication. Type of series: in vivo, human.
The next series has as its system ASD patients. The following applies: cited from earlier work.
Series [2] in a line: Capture of dopamine by glyoxal, free dopamine by HPLC. Type of series: biochemical. The following applies: 2.5 mM dopamine + 25 mM glyoxal + 25 mM test compound, pH 7.4, room temperature, 30 minutes; glyoxal alone about 30%. As to the method: (§1) The reaction solutions are incubated at room temperature, and the amount of free serotonin or dopamine, which were not captured by glyoxal, in the reaction solutions was measured by HPLC.
(§2) The negative control contained only 5-HT or DP with a buffer (GO and the test compounds were not added) (test samples 1 and 5), and the positive control contained 5-HT or DP and only GO (none of the test compounds was added) (test samples 2 and 6). […] After incubation, the reaction solutions were diluted 10-fold (pH 7.4) with a 0.25 M phosphate buffer, and analyzed by HPLC. The HPLC analysis was performed with instruments produced by Shimadzu Corporation (system controller: SCL-10A vp, auto injector: SIL-10A, degasser: DGU-12A, liquid chromatograph: LC-10AD vp, UV-Vis detector: SPD-10A vp, and column oven: CTO-10AC vp) under the conditions shown in Table 6. The data analysis was performed with Chromatopac C-R7A Plus.

Series [3] can be described thus: Capture of serotonin by glyoxal, free serotonin by HPLC. In kind it is biochemical. The conditions noted are these: 2.5 mM serotonin + 25 mM glyoxal + 25 mM test compound, pH 7.4, room temperature, 2 hours; glyoxal alone about 40%. As to the method:
as §1, §2

Turning to `CC(=C(CCO)SSCC1CCCO1)N(C=O)Cc1cnc(C)nc1N` (stereo in doubt) [Fursultiamine, fursultiamine, reference compound], in series [1] (subject ID No. 3, 14 weeks after start (8 weeks after start of thiamine compound 75 mg/day oral)), the “symptom of Wernicke's encephalopathy” value was “disappeared”. The “vitamin B1 level in whole blood” value stood at 135 ng/mL in series [1] (subject ID No. 3, fursultiamine 75 mg/day oral for 6 weeks with continued pyridoxamine, 12 weeks after start, 28 ng/mL before thiamine) and 150 ng/mL in series [1] (subject ID No. 6, fursultiamine 300 mg/day intravenous, then 100 to 50 mg/day oral, with pyridoxamine, 11 weeks after start, 25 ng/mL before thiamine). Also, in series [1] (subject ID No. 6, 11 weeks after start, on thiamine compound), the “symptoms of Wernicke's encephalopathy” value is recorded as “disappeared”.
For `Cc1ncc(CO)c(C=O)c1O` [pyridoxal], the “repetitive patterns of behavior of ASD patients” value with ASD patients (30 mg/kg/day, other research denies this efficacy (NPL 6)) was “effective”. For the same molecule, the “amount of free dopamine relative to the negative control taken as 100%” value in series [2] is listed as “no free dopamine became detectable”. In addition, the “amount of free serotonin relative to the negative control taken as 100%” value in series [3] was “rather decreased”.
As for `Cc1ncc(CO)c(CO)c1O` [pyridoxine], the “side effects (irritability, hyperactivity, sound sensitivity, enuresis)” value in the series on ASD patients (children with ASD, NPL 8, NPL 9) is “may cause side effects to develop”. Further, the verbal intelligence entry in the series with ASD patients (children with pervasive developmental disorder who have sensitivity to sound, NPL 7) was “improvement in verbal intelligence”. Besides, the “intelligence quotient (IQ) scores” value in the series on ASD patients (children with pervasive developmental disorder, sensitive to sound, expressive language disorder, dyspraxia, high amount, NPL 2) is on record as “increases in intelligence quotient (IQ) scores”.
